Data on one compound can be found in publication PMC6934184, “Selective DNA-PKcs inhibition extends the therapeutic index of localized radiotherapy and chemotherapy” (The Journal of Clinical Investigation, 2019).

This assay deals with T1, PIK3C2A (PI3K-C2 alpha) (Homo sapiens, UniProt O00443).
T1 construct: purchased Thermo Fisher Scientific (Life Technologies) SelectScreen
Put plainly: SelectScreen Adapta. The format is biochemical. An outline of the steps:
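NU5455 was profiled across the SelectScreen Broad panel of kinase activity and binding assays. Z'LYTE reactions such as CSF1R ran at apparent Km ATP, while the Adapta CAMK1 assay used ATP listed as 10. Values are given as percent.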

T1 sequence (O00443 whole entry): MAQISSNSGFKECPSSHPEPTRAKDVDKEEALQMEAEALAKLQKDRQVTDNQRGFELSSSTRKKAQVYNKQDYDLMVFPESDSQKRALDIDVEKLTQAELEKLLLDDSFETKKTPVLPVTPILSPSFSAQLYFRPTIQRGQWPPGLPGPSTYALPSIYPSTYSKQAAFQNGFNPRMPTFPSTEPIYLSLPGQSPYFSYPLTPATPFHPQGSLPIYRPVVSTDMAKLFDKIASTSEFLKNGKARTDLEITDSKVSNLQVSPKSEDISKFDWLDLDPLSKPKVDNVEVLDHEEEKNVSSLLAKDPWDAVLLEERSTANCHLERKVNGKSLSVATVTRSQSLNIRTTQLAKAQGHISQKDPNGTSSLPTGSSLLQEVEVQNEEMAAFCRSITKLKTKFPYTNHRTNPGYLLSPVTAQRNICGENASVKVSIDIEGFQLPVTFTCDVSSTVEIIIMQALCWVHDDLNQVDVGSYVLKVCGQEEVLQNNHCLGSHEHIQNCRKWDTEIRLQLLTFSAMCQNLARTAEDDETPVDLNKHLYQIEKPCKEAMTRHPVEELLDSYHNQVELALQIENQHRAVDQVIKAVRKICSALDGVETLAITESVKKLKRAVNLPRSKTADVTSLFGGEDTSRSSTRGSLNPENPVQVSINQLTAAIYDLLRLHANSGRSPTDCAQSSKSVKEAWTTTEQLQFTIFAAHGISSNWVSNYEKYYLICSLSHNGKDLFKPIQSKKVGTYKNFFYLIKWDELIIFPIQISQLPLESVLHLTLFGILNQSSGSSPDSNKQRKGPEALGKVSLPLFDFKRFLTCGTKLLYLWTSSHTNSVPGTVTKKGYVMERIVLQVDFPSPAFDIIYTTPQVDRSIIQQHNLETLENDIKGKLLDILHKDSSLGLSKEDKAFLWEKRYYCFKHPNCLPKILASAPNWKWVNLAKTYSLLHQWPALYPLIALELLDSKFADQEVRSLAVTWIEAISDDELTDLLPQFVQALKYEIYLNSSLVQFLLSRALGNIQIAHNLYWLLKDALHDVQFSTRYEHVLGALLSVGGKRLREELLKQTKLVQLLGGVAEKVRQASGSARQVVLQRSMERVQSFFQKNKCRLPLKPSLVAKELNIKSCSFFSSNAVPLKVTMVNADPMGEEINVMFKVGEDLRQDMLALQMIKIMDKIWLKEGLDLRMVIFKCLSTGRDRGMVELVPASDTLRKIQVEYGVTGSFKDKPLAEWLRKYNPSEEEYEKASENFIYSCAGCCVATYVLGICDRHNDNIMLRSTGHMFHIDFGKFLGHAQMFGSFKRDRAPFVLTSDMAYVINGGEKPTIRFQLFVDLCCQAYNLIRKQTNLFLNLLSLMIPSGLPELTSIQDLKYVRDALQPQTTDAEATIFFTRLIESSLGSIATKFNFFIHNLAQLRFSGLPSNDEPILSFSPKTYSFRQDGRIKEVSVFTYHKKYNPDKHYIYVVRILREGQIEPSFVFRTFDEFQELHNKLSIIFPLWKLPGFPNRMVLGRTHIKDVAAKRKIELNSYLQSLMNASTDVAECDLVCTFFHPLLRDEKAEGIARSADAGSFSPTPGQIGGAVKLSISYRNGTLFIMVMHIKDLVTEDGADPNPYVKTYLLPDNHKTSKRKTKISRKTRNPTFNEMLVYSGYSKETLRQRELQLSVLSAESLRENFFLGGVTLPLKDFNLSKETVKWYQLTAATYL

`CN(C(=O)CN1CCOCC1)c1ccc2sc3c(-c4cccc5c(=O)cc(N6CC7CCC(C6)O7)oc45)cccc3c2c1` [NU5455]: 1 µM produced 1.3% inhibition.
